From patent US10251845B2, “Fatty acid cysteamine conjugates and their use as activators of autophagy” (Catabasis Pharmaceuticals, Inc., priority 2014, dated 2019)
Entries after “also recorded” stand apart in the source; their conditions may differ. Like-named read-outs stand apart in the source and are kept apart here.

Experiments:
LC3-II/LC3-I = test: LC3 immunoblotting in Huh-7 cells (autophagy); format: cell-based
Description: The test compound was first solubilized in 100% DMSO as a 50 mM solution, and then diluted 1 to 100 in FBS as a 10× stock solution of 500 μM.
Huh-7 cells were seeded in 10% FBS DMEM overnight. The cells media were replaced with drug diluted 1 to 10 in DMEM (final concentration 50 μm in 10% FBS DMEM). Four hours after the drug addition, cells were lysed in RIPA buffer. Cell lysates were analyzed by immunoblotting with anti-LC3A/B antibodies (Cell signaling 12741). Data were presented as LC3-II/LC3-I ratio compared to vehicle treated samples.
The same experimental procedure detailed in Example 11 was used, except that 2 hours after the drug addition, cells were lysed in RIPA buffer, instead of the previously described 4 hours. Cell lysates were again analyzed by immunoblotting with anti-LC3A/B antibodies (Cell Signaling Technology 12741). Data were presented as LC3-II/LC3-I ratio compared to vehicle treated samples.
This same synergy experiment was repeated in Huh-7 cells after a 4 hour treatment with compound II-2 along with a higher concentration of the individual components (250 μM each of cystamine, EPA or a combination of cystamine and EPA).

[1] = Plasma stability, mouse plasma; format: in vitro ADME; settings: 5 μM, 0.5, 1 and 2 hour time points
Description: (§1) The in vitro stability of the test compounds was studied in human, mouse, beagle and rat plasma (plasma was purchased from Bioreclamation). Plasma was diluted to 50% with PBS (pH 7.4). Test compounds were dissolved in DMSO to a final concentration of 10 mM and then diluted to 1 mM in MeOH. Incubations were carried at a test compound concentration of 5 μM with a final DMSO concentration of 2.5%. Plasma (198 μL) was added to 96-well plate and incubated at 37° C. for 30 minutes before the addition of […] of the test compound. The resulting mixture was then incubated at 37° C. for 2 hours. At appropriate time intervals (0, 30, 60 and 120 minutes), aliquots (50 μL) were removed and reactions were terminated by adding 200 μL of acetonitrile with an internal standard. Simultaneously, plasma samples containing Benflourex or Procaine (control compound) were terminated by adding 200 μL of acetonitrile internal standard. The sample plate was centrifuged at 3500 rpm for 45 minutes at 4° C. and the supernatant was transferred to a new plate for analysis by LC/MS-MS (Agilent Model No: HPLC: 1200, MS: 6410). […] A binary gradient consisting of 0.1% formic acid in water and 0.1% formic acid in methanol was used for analyte elution.

[2] = Plasma stability, rat plasma; format: in vitro ADME; settings: rat plasma, 5 μM, 0.5, 1 and 2 hour time points
Description: as §1

[3] = Oral cannulated rat PK study (portal and jugular vein); format: in vivo, Sprague Dawley rats; settings: rat, oral; for AUC(0-t) / Cmax: Sprague Dawley
Source text: The compounds of the invention were solubilized in a mixture of excipients consisting 40% Tween, 50% Peceol, 10% PEG400 and diluted with water to form a self-emulsifying aqueous mixture for oral administration to animals. For this study, Sprague Dawley rats that have been surgically implanted with indwelling jugular vein cannula (JVC) and portal vein cannula (PVC) were used (Agilux, Worcester, Mass.). This approach using double-cannulated rats allowed the measurement of the drug concentration that was delivered in the portal vein as well as the drug concentration that was present in the peripheral. For the PK study, serial blood collection was carried out at both the portal and jugular vein at the following time points: 10, 20, 40 min and 1, 2, 4 and 6 hours post dose. The bioanalytical portion of the PK study was carried out using an LC/MS/MS system (Agilent Model No: HPLC: 1200, MS: 6410) and analyzed with the appropriate software (WinNonlin Phoenix 64 6.3.0 395).

ΔF508 CFTR = ΔF508 CFTR (Homo sapiens, UniProt P13569, DEL508-508); test: Ussing chamber short circuit current in Fisher Rat Thyroid epithelial cells overexpressing ΔF508-CFTR; format: cell-based; set-up: expressed in transfected cells; host or cells: Fisher Rat Thyroid (FRT) epithelial cells, stably transfected; settings: FRT cells, 10 μM, 4 hours
Chain of ΔF508 CFTR (P13569 with tags, fused parts or gaps DEL508-508): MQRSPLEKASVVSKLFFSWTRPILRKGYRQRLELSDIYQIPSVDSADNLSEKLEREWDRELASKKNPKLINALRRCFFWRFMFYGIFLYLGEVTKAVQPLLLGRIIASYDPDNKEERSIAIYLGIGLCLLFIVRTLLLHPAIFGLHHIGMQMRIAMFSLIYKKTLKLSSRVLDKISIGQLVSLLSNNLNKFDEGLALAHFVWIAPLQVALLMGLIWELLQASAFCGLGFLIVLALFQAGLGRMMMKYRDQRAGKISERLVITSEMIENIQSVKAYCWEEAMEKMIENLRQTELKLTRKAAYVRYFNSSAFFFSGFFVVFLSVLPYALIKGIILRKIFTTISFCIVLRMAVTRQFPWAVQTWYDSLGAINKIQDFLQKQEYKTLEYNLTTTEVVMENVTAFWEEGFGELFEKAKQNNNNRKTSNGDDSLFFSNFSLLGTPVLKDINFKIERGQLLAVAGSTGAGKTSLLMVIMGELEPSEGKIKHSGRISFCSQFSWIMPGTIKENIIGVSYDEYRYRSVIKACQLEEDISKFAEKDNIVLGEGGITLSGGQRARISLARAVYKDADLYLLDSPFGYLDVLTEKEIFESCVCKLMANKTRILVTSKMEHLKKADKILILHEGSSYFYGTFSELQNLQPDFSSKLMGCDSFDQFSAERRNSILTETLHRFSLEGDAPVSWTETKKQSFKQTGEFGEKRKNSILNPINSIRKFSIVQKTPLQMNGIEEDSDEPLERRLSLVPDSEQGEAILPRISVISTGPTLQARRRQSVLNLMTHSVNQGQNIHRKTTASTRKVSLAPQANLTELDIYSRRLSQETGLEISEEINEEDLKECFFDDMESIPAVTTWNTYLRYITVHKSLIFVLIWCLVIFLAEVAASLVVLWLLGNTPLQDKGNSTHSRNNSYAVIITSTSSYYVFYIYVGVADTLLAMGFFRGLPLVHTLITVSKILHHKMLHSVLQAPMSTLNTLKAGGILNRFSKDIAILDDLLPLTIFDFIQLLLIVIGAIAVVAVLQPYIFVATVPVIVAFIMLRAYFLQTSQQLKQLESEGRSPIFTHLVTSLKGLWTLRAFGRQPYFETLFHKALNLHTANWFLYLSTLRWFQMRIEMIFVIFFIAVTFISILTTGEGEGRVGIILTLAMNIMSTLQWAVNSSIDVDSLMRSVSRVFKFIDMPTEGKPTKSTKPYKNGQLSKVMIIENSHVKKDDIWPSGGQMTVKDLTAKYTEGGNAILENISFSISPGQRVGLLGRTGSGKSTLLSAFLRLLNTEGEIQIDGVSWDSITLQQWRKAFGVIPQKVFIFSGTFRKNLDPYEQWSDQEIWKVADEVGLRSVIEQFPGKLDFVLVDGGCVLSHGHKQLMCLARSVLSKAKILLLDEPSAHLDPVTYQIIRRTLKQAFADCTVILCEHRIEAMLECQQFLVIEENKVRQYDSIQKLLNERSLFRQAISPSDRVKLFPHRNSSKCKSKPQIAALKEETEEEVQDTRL
Description: The most prevalent disease causing mutation of the CF transmembrane conductance regulator (CFTR) chloride channel is the deletion of phenylalanine at position 508 in the primary sequence of CFTR (ΔF508-CFTR). This mutation causes a trafficking defect resulting in a severe reduction of ΔF508-CFTR protein at the cell surface. The trafficking defect can be corrected by incubation at low temperature (27° C. overnight) or pharmacologically by small molecules and CFTR correctors. Chloride transport function of Fisher Rat Thyroid (FRT) epithelial cells overexpressing ΔF508-CFTR in monolayers grown on Snapwell™ filter inserts will be monitored as the CFTR agonist evoked short circuit (ISC) current output of an Ussing epithelial voltage clamp apparatus. An objective of this study is to measure the ability of test compounds to restore function to defective ΔF508-CFTR in FRT epithelial cell monolayers.
Measurement of corrector efficacy is divided into two phases. The initial phase is incubation of epithelia with the test compounds for a period of time (that can range from 2 hours to one or two days) in a 37° C. incubator and the second phase is measurement of epithelial ΔF508-CFTR chloride channel current with an epithelial voltage clamp (Ussing assay). The short circuit current (ISC) is measured under short circuit conditions (0 mV transepithelial potential). The ISC magnitude is an index of corrector efficacy and is compared to vehicle and positive control.
Cryopreserved FRT cells stably transfected with ΔF508-CFTR cDNA (Pedemonte et al. (2005) J. CLIN. INVEST., 115, p. 2564-2571) were expanded and plated on Snapwell™ filters for measurement of short circuit current in an Ussing apparatus (Physiologic Instruments, Inc., Sand Diego, Calif.). Cells were grown in Coon's modification of Ham's F-12 media supplemented with zeocin and G-418.
To conduct the assay, a compound of the invention was solubilized as follows: • 1) Prepare 25 mM stock solution in 100% DMSO. • 2) Dilute 12 μL of 25 mM stock solution in 1.20 mL of FBS to make 250 μM intermediate dilution 10× stock (1% DMSO, 99% FBS). Gently vortex all solutions until the solution becomes clear. • 3) Prepare final dilution of 10 μM in 10 mL of Coon's media per well (4 wells×2 mL per well bottom+0.2 mL per insert top=8.8 mL and 1.2 mL reserve for handling losses) by addition of 400 μL of 10× stock and 600 μL of 10× carrier (1% DMSO, 99% FBS) to 9000 μL of Coon's media.
For this example, the test compound was solubilized and added to the appropriate inserts of Ussing chambers (n=4 for each test compound, final test concentration of 10 μM). A DMSO vehicle control and a positive control (VX-809 at 3 μM) were also used. For this particular example, all the test articles, including the positive control, were incubated with the cells for a period of 4 hours. The FRT cell monolayers grown on Snapwell™ filter inserts were transferred to Physiologic Instruments Ussing recording chambers (Physiologic Instruments, Inc., San Diego, Calif.) and superfused with HB-PS on the basolateral side and 78CF-PS on the apical side. One or more 6-channel or 8-channel Physiologic Instruments VCC MC6 or VCC MC8 epithelial voltage clamps were then used in combination to record the short circuit current (ISC) during the entire run. To initiate the ISC measurement, amphotericin (100 μM) was added to the basolateral side of the Snapwell™ filter insert to permeabilize the epithelial cells for 15 min. Forskolin (10 μM), IBMX (100 μM), Genistein (20 μM) and the CFTRinh-172 (20 μM) were added sequentially after the following incubation periods (15 min, 20 min, 10 min, 15 min and 15 min respectively). Data acquisition and analyses were performed using iWorx data acquisition hardware and Labscribe 2 software (iWorx, Dover, N.H.). […]

plasma stability (parent compound remaining) [1]: unstable
plasma stability (parent compound remaining) [2]: unstable; also recorded: not stable
AUC(0-t) ([3]; jugular vein blood (peripheral), systemic circulation (jugular vein), read-out: peripheral AUClast): 0.443 ± 0.221 ng·h/mL
Cmax ([3]; jugular vein blood (peripheral), systemic circulation (jugular vein), read-out: peripheral Cmax): 0.889 ± 0.33 ng/mL
AUC(0-t) ([3]; portal vein blood, portal vein, read-out: portal AUClast): 12.5 ± 6.5 ng·h/mL
Cmax ([3]; portal vein blood, portal vein, read-out: portal Cmax): 20.8 ± 9.45 ng/mL
peripheral AUClast ([3]; as restated in Example 23): 0.889 ng·h/mL
Structure (SMILES): CC/C=C\C/C=C\C/C=C\C/C=C\C/C=C\CCCC(=O)NCCSSCCNC(=O)c1cccnc1 [II-2, N-(2-((2-((5Z,8Z,11Z,14Z,17Z)-icosa-5,8,11,14,17-pentaenamido)ethyl)disulfanyl)ethyl)nicotinamide]
autophagy marker LC3-II (lower band) levels (LC3-II/LC3-I; Huh cells, 25 and 50 μM, 4 hours): increase
ratio of LC3-II to LC3-I compared to vehicle control (LC3-II/LC3-I; Huh-7, 50 μM, 2 hours): two-fold increase
autophagy marker LC3-II (lower band) (LC3-II/LC3-I; Huh-7, 50 μM, 2 hours, compared with cystamine, EPA or their combination (50 μM each)): synergistic increase
activation of autophagy (ratio of LC3-II to LC3-I) (LC3-II/LC3-I; Huh-7, 50 μM, 4 hour treatment): synergistic and higher degree of activation of autophagy
ratio of LC3-II to LC3-I (LC3-II/LC3-I; Huh-7 cells, 25 μM, 4 hours): increased
degradation of the parent compound upon oral dosing [3]: significant amount of the parent compound was degraded
functional rescue of CFTR (short circuit current vs vehicle) (ΔF508 CFTR): able to functionally rescue CFTR function
